Test results: patent publication US9512139B2, “Conformationally constrained, fully synthetic macrocyclic compounds” (POLYPHOR AG, priority 2009, dated 2016)

Assays:
[1] = test system: Wnt/Beta-Catenin pathway (LEF-TCF-bla SW480 cells); assay: Wnt/Beta-Catenin (APC-/-) LEF-TCF-bla SW480 inhibitor screen, constitutively activated; format: cell-based; conditions: Homo sapiens, SW480; for IC50: read-out: TCF/LEF receptor gene activity IC50; for inhibition at 10 µM: read-out: TCF/LEF receptor gene activity [% inhibition at 10 μM]
Method: (§1) 3. Assays for the Wnt-Pathway
(§2) For determining the activity of the test compounds on the Wnt-pathway each substances war subjected to two distinct assays: The first (Wnt/Beta-Catenin) assay screened for inhibitors of the Wnt-pathway while the second (MAPK/MEK/B-raf) was conducted in order to confirm that the test compounds modulate the β-catenin-dependent, canonical Wnt pathway and are not acting via a possibly competing β-catenin-independent, noncanonical Wnt messaging system.
(§3) Both assays were performed and analyzed with a Tecan Safire^2 fluorescence plate reader.
Wnt/Beta-Catenin (APC−/−)—LEF-TCF-bla SW480—Inhibitor Screen, Constitutively Activated
(§4) LEF-TCF-bla SW480 cells are thawed and resuspended in Assay Media (OPTI-MEM, 0.5% dialyzed FBS, 0.1 mM NEAA, 1 mM Sodium Pyruvate, 100 U/mL/100 μg/mL Pen/Strep) to a concentration of 312,500 cells/mL. 4 μL of a 10× serial dilution of ICG-001 (control inhibitor starting concentration, 10,000 nM) or compounds are added to appropriate wells of a TC-Treated assay plate. 32 μL of cell suspension (10,000 cells) is added to the wells. 4 μL of Assay Media is added to all wells to bring the final assay volume to 40 μL. The plate is incubated for 16-24 hours at 37° C./5% CO2 in a humidified incubator. 8 μL of 1 μM Substrate Loading Solution is added to each well and the plate is incubated for 2 hours at room temperature.

[2] = test system: MAPK/MEK/B-raf pathway (AP1-bla A375 cells); assay: MAPK/MEK/B-raf AP1-bla A375 inhibitor screen, constitutively activated (negative control of the Wnt assay); format: cell-based; conditions: Homo sapiens, A-375, read-out: AP receptor gene activity IC50
Method: as §1, §2, §3
MAPK/MEK/B-raf—APl-bla A375—Inhibitor Screen, Constitutively Activated
as §4, with “AP1-bla A375” for “LEF-TCF-bla SW480”, “Raf1 Kinase Inhibitor” for “ICG-001”

SMILES | IC50 [1] [µM] | inhibition at 10 µM [1] [%] | IC50 [2] [µM]
CN1CC(=O)N2C[C@@H](NC(=O)c3cccc(Cl)c3)C[C@H]2COc2ccc(F)cc2C(=O)N(C)[C@H](C(=O)NCc2cccc3ccccc23)CCC1=O [Ex. 502, (2S,11S,19aS)-2-[(3-chlorobenzoyl)amino]-15-fluoro-7,12-dimethyl-N-(1-naphthylmethyl)-5,8,13-trioxo-2,3,6,7,8,9,10,11,12,13,19,19a-dodecahydro-1H,5H-pyrrolo[2,1-c] [1,4,7,12] benzoxatriazacyclopentadecine-11-carboxamide] | 5.5 | 82 | > 50
CN1CC(=O)N2C[C@@H](NC(=O)c3cccc4ccccc34)C[C@H]2COc2ccc(F)cc2C(=O)N(C)[C@H](C(=O)NCc2ccc3ccccc3c2)CCC1=O [Ex. 503, (2S,11S,19aS)-15-fluoro-7,12-dimethyl-2-(1-naphthoylamino)-N-(2-naphthylmethyl)-5,8,13-trioxo-2,3,6,7,8,9,10,11,12,13,19,19a-dodecahydro-1H,5H-pyrrolo[2,1-c] [1,4,7,12]benzoxatriazacyclopentadecine-11-carboxamide] | 5.8 | 68 | > 50
